{"source": "paper PMC12102759", "about": "(Protein Science : A Publication of the Protein Society, 2025)", "key": {"NSP3 SUD-M": {"target": "NSP3 SUD-M (Severe acute respiratory syndrome coronavirus 2, UniProt P0DTC1)", "experiment": "biochemical", "format": "binding, SARS‐CoV‐2"}, "NSP3 UBl1": {"target": "NSP3 UBl1 (Severe acute respiratory syndrome coronavirus 2, UniProt P0DTC1)", "format": "binding, SARS‐CoV‐2"}, "NSP9": {"target": "NSP9 (Severe acute respiratory syndrome coronavirus 2, UniProt P0DTC1)", "format": "binding, SARS‐CoV‐2"}}, "data": [{"substance": "Ac-QFTEEALHFVLYGVTPY-NH2 [PRDM14 D201A]", "values": [{"measurement": "effect of mutation on affinity, in words", "setting": "NSP3 SUD-M", "value": "reduced affinity"}]}, {"substance": "Ac-QFTEENLHFVLYGVTPY-NH2 [PRDM14 D201N]", "values": [{"measurement": "effect of mutation on affinity, in words", "setting": "NSP3 SUD-M", "value": "reduced affinity"}]}, {"substance": "DEGALLDQLYLALRNF", "values": [{"measurement": "PSSM value, column E", "setting": "NSP3 UBl1", "value": 1}, {"measurement": "PSSM value, column G", "setting": "NSP3 UBl1", "value": 0.00255}, {"measurement": "PSSM value, column N", "setting": "NSP3 UBl1", "value": 0.0003155}, {"measurement": "PSSM value, column Q", "setting": "NSP3 UBl1", "value": 0.001034}, {"measurement": "PSSM value, column R", "setting": "NSP3 UBl1", "value": 0.0009557}, {"measurement": "PSSM value, column Y", "setting": "NSP3 UBl1", "value": 0.8625}]}, {"substance": "EPGHSPADYLRFQDLV", "values": [{"measurement": "DMS PSSM value, P (position 2)", "setting": "NSP16", "value": 0}, {"measurement": "DMS PSSM value, column A (position 7)", "setting": "NSP16", "value": 0}, {"measurement": "DMS PSSM value, column D (position 8)", "setting": "NSP16", "value": 1}, {"measurement": "DMS PSSM value, column D (position 14)", "setting": "NSP16", "value": 1}, {"measurement": "DMS PSSM value, column F (position 12)", "setting": "NSP16", "value": 1}, {"measurement": "DMS PSSM value, column G (position 3)", "setting": "NSP16", "value": 0}, {"measurement": "DMS PSSM value, column H (position 4)", "setting": "NSP16", "value": 1}, {"measurement": "DMS PSSM value, column L (position 10)", "setting": "NSP16", "value": 0}, {"measurement": "DMS PSSM value, column L (position 15)", "setting": "NSP16", "value": 0}, {"measurement": "DMS PSSM value, column P (position 6)", "setting": "NSP16", "value": 0}, {"measurement": "DMS PSSM value, column Q (position 13)", "setting": "NSP16", "value": 1}, {"measurement": "DMS PSSM value, column R (position 11)", "setting": "NSP16", "value": 1}, {"measurement": "DMS PSSM value, column S (position 5)", "setting": "NSP16", "value": 0}, {"measurement": "DMS PSSM value, column V (position 16)", "setting": "NSP16", "value": 1}, {"measurement": "DMS PSSM value, column Y (position 9)", "setting": "NSP16", "value": 0}]}, {"substance": "GHSPADYLRFQDLVLR", "values": [{"measurement": "DMS PSSM value, P (position 4)", "setting": "NSP16", "value": 0.03004}, {"measurement": "DMS PSSM value, column A (position 5)", "setting": "NSP16", "value": 0.5801}, {"measurement": "DMS PSSM value, column D (position 6)", "setting": "NSP16", "value": 0.9437}, {"measurement": "DMS PSSM value, column D (position 12)", "setting": "NSP16", "value": 0.8934}, {"measurement": "DMS PSSM value, column F (position 10)", "setting": "NSP16", "value": 1}, {"measurement": "DMS PSSM value, column G (position 1)", "setting": "NSP16", "value": 0.4974}, {"measurement": "DMS PSSM value, column H (position 2)", "setting": "NSP16", "value": 0.3305}, {"measurement": "DMS PSSM value, column L (position 8)", "setting": "NSP16", "value": 0.965}, {"measurement": "DMS PSSM value, column L (position 13)", "setting": "NSP16", "value": 0.8766}, {"measurement": "DMS PSSM value, column L (position 15)", "setting": "NSP16", "value": 0.9948}, {"measurement": "DMS PSSM value, column Q (position 11)", "setting": "NSP16", "value": 1}, {"measurement": "DMS PSSM value, column R (position 9)", "setting": "NSP16", "value": 0.07816}, {"measurement": "DMS PSSM value, column S (position 3)", "setting": "NSP16", "value": 0.3438}, {"measurement": "DMS PSSM value, column V (position 14)", "setting": "NSP16", "value": 0.9023}, {"measurement": "DMS PSSM value, column Y (position 7)", "setting": "NSP16", "value": 1}]}, {"substance": "NSSGLSIGTVFQSSSP", "values": [{"measurement": "PSSM value, position F11 of NSSGLSIGTVFQSSSP", "setting": "NSP9", "value": 0.004607}, {"measurement": "PSSM value, position I7 of NSSGLSIGTVFQSSSP", "setting": "NSP9", "value": 0.3584}, {"measurement": "PSSM value, position L5 of NSSGLSIGTVFQSSSP", "setting": "NSP9", "value": 0.5284}, {"measurement": "PSSM value, position P16 of NSSGLSIGTVFQSSSP", "setting": "NSP9", "value": 0.0472}, {"measurement": "PSSM value, position Q12 of NSSGLSIGTVFQSSSP", "setting": "NSP9", "value": 0.008402}, {"measurement": "PSSM value, position S2 of NSSGLSIGTVFQSSSP", "setting": "NSP9", "value": 0.1505}, {"measurement": "PSSM value, position S3 of NSSGLSIGTVFQSSSP", "setting": "NSP9", "value": 0.01233}, {"measurement": "PSSM value, position S6 of NSSGLSIGTVFQSSSP", "setting": "NSP9", "value": 0.08225}, {"measurement": "PSSM value, position S13 of NSSGLSIGTVFQSSSP", "setting": "NSP9", "value": 0.05519}, {"measurement": "PSSM value, position S14 of NSSGLSIGTVFQSSSP", "setting": "NSP9", "value": 0.02572}, {"measurement": "PSSM value, position S15 of NSSGLSIGTVFQSSSP", "setting": "NSP9", "value": 0.009443}, {"measurement": "PSSM value, position T9 of NSSGLSIGTVFQSSSP", "setting": "NSP9", "value": 0.0231}, {"measurement": "PSSM value, position V10 of NSSGLSIGTVFQSSSP", "setting": "NSP9", "value": 0.01201}]}, {"substance": "PSDEGALLDQLYLALR", "values": [{"measurement": "PSSM value, column E", "setting": "NSP3 UBl1", "value": 0.9239}, {"measurement": "PSSM value, column G", "setting": "NSP3 UBl1", "value": 0.163}, {"measurement": "PSSM value, column Q", "setting": "NSP3 UBl1", "value": 0.8454}, {"measurement": "PSSM value, column R", "setting": "NSP3 UBl1", "value": 0.000271}, {"measurement": "PSSM value, column S", "setting": "NSP3 UBl1", "value": 0.00806}, {"measurement": "PSSM value, column Y", "setting": "NSP3 UBl1", "value": 0.04994}]}, {"substance": "SGLSIGTVFQSSSPGG", "values": [{"measurement": "PSSM value, position F9 of SGLSIGTVFQSSSPGG", "setting": "NSP9", "value": 0}, {"measurement": "PSSM value, position I5 of SGLSIGTVFQSSSPGG", "setting": "NSP9", "value": 1}, {"measurement": "PSSM value, position L3 of SGLSIGTVFQSSSPGG", "setting": "NSP9", "value": 0}, {"measurement": "PSSM value, position P14 of SGLSIGTVFQSSSPGG", "setting": "NSP9", "value": 0}, {"measurement": "PSSM value, position Q10 of SGLSIGTVFQSSSPGG", "setting": "NSP9", "value": 0}, {"measurement": "PSSM value, position S1 of SGLSIGTVFQSSSPGG", "setting": "NSP9", "value": 0}, {"measurement": "PSSM value, position S4 of SGLSIGTVFQSSSPGG", "setting": "NSP9", "value": 0}, {"measurement": "PSSM value, position S11 of SGLSIGTVFQSSSPGG", "setting": "NSP9", "value": 0}, {"measurement": "PSSM value, position S12 of SGLSIGTVFQSSSPGG", "setting": "NSP9", "value": 0}, {"measurement": "PSSM value, position S13 of SGLSIGTVFQSSSPGG", "setting": "NSP9", "value": 0}, {"measurement": "PSSM value, position T7 of SGLSIGTVFQSSSPGG", "setting": "NSP9", "value": 0}, {"measurement": "PSSM value, position V8 of SGLSIGTVFQSSSPGG", "setting": "NSP9", "value": 0}]}]}
